Consider one compound from ChEMBL document CHEMBL6127139, “Lysine-Targeted Covalent Inhibitors of PI3Kδ Synthesis and Screening by In Situ Interaction Upgradation” (J Med Chem, 2024).

In series [1] the test system is SU-DHL-6. Kind of series: Induction of apoptosis in human SU-DHL-6 cells assessed as early apoptotic cells at 0.1 uM incubated for 48 hrs by Annexin V-FITC/PI staining based flow cytometric analysis (reference value: 5.02 %). The class given is functional.
Series [2] deals with T1, Phosphatidylinositol 4,5-bisphosphate 3-kinase catalytic subunit delta isoform (Homo sapiens) (UniProt O00329).
T1 sequence (whole entry): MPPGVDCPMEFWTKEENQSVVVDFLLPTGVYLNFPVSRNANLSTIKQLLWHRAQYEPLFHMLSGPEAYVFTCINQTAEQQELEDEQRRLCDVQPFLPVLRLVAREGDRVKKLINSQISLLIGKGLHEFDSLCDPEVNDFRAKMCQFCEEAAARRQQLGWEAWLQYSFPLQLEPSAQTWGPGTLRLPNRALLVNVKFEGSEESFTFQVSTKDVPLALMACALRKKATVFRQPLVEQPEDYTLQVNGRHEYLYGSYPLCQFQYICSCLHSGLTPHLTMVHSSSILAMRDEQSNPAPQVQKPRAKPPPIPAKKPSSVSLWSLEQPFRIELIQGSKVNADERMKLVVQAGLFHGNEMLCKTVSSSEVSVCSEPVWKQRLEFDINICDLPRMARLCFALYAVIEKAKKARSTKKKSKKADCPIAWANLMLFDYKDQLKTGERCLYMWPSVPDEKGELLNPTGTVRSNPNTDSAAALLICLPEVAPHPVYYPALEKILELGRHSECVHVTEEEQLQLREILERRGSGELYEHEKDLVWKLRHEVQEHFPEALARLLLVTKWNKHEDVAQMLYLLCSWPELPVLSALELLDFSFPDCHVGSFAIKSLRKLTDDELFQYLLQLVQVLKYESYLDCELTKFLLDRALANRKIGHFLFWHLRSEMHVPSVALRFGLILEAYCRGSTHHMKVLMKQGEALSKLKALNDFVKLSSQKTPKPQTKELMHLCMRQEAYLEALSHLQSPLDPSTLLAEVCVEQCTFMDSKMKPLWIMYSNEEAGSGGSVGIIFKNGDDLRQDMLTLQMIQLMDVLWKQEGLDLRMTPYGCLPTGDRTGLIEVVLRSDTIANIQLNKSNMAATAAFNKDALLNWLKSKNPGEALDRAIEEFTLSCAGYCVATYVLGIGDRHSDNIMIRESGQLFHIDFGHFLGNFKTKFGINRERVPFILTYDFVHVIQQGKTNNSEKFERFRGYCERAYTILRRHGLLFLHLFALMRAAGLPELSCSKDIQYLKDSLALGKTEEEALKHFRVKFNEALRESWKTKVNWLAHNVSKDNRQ
Briefly: Potency index, ratio of idelalisib IC50 to test compound IC50 for inhibition of recombinant PI3Kdelta (unknown origin) using PIP2:3PS as substrate preincubated for 20 mins followed by ATP addition and measured after 1 hrs by ADP-Glo reagent based assay. The following applies: time 80.0 min.

Series [3] concerns SU-DHL-6. Kind of series: Induction of apoptosis in human SU-DHL-6 cells assessed as viable cells at 1 uM incubated for 48 hrs by Annexin V-FITC/PI staining based flow cytometric analysis (reference value: 89.81 %). It is filed as functional. The following applies: read-out: Activity.
Series [4] concerns SU-DHL-6. Kind of series: Induction of apoptosis in human SU-DHL-6 cells assessed as late apoptotic cells at 0.01 uM incubated for 48 hrs by Annexin V-FITC/PI staining based flow cytometric analysis (reference value: 4.12 %). It is filed as functional. A general note: In flow cytometry, cells or beads pass a laser one at a time.
Series [5] addresses Phosphatidylinositol 4,5-bisphosphate 3-kinase catalytic subunit gamma isoform (Homo sapiens, UniProt P48736). Briefly: Inhibition of recombinant PI3Kgamma (unknown origin) using PIP2:3PS as substrate preincubated for 20 mins followed by ATP addition and measured after 1 hrs by ADP-Glo reagent based assay. On the technique in general: ADP-Glo turns the ADP formed in a reaction into a luminescent signal.

The nature of series [6]: Selectivity index, ratio of IC50 for inhibition of recombinant PI3Kalpha (unknown origin) using PIP2:3PS as substrate to IC50 for inhibition of recombinant PI3Kdelta (unknown origin) using PIP2:3PS as substrate.
A short description of series [7]: Growth inhibition of PI3Kdelta-overexpressing human SU-DHL-6 cells incubated for 72 hrs by MTT assay. It is filed as functional. A general note: Formazan colour is commonly taken as a measure of viable cells.
Series [8] deals with SU-DHL-6. Kind of series: Potency index, ratio of idelalisib GI50 to test compound GI50 for growth inhibition of PI3Kdelta-overexpressing human SU-DHL-6 cells incubated for 72 hrs by MTT assay. The class given is functional.
The test system of series [9] is SU-DHL-6. Kind of series: Irreversible inhibition of AKT phosphorylation in human SU-DHL-6 cells preincubated for 12 hrs followed by compound washout and measured after 24 hrs by Western blot analysis. It is filed as cell-based.
Series [10] concerns the target T1, Phosphatidylinositol 4,5-bisphosphate 3-kinase catalytic subunit delta isoform (Homo sapiens). Kind of series: Induction of thermal stabilization of PI3Kdelta in human SU-DHL-6 cells at 1 uM preincubated for 30 mins followed by incubated under 40 to 75 degreeC for 3 mins by CETSA. The class given is cell-based. The following applies: time 33.0 min.
The target is the same in series [11]. Kind of series: Covalent inhibition of PI3Kdelta (unknown origin) using PIP2:3PS as substrate assessed as second order rate constant (Kinact/Ki ratio) incubated upto 180 mins in presence of ATP by ADP-Glo reagent based assay.
Series [12] is described as follows: Selectivity index, ratio of IC50 for inhibition of recombinant PI3Kbeta (unknown origin) using PIP2:3PS as substrate to IC50 for inhibition of recombinant PI3Kdelta (unknown origin) using PIP2:3PS as substrate.
Series [13] relates to MCF7. Briefly: Growth inhibition of human MCF7 cells incubated for 72 hrs by MTT assay. The class given is functional.
The target in series [14] is Phosphatidylinositol 4,5-bisphosphate 3-kinase catalytic subunit beta isoform (Homo sapiens, UniProt P42338). Briefly: Inhibition of recombinant PI3Kbeta (unknown origin) using PIP2:3PS as substrate preincubated for 20 mins followed by ATP addition and measured after 1 hrs by ADP-Glo reagent based assay.
A short description of series [15]: Selectivity index, ratio of IC50 for inhibition of recombinant PI3Kgamma (unknown origin) using PIP2:3PS as substrate to IC50 for inhibition of recombinant PI3Kdelta (unknown origin) using PIP2:3PS as substrate.
In series [16] the test system is Pfeiffer. Briefly: Antitumor activity against human Pfeiffer cells xenografted in male nude mouse assessed as tumor growth inhibition at 5 mg/kg/day, po administered for 14 days relative to control. The class given is functional. The following applies: 336 h, time 14 day, read-out: TGI.
Series [17] addresses T2, Phosphatidylinositol 4,5-bisphosphate 3-kinase catalytic subunit delta isoform (Homo sapiens, UniProt O00329).
T2 sequence (O00329 whole entry): T1 sequence (whole entry)
Briefly: Inhibition of recombinant PI3Kdelta (unknown origin) using PIP2:3PS as substrate preincubated for 20 mins followed by ATP addition and measured after 1 hrs by ADP-Glo reagent based assay.

Series [18] in a line: Growth inhibition of PI3Kdelta-overexpressing human Pfeiffer cells incubated for 72 hrs by MTT assay. It is filed as functional.
Series [19] relates to HCT-116. Briefly: Growth inhibition of human HCT-116 cells incubated for 72 hrs by MTT assay. The class given is functional.
The nature of series [20]: Stability of compound in water/acetonitrile solution incubated for 24 hrs by HPLC analysis. The class given is physicochemical. The following applies: buffer.
Series [21] concerns SU-DHL-6. Kind of series: Induction of apoptosis in human SU-DHL-6 cells assessed as viable cells at 0.1 uM incubated for 48 hrs by Annexin V-FITC/PI staining based flow cytometric analysis (reference value: 89.81 %). The following applies: read-out: Activity. The class given is functional.
Series [22] concerns SU-DHL-6. Briefly: Inhibition of AKT phosphorylation in human SU-DHL-6 cells incubated for 24 hrs by Western blot analysis. The class given is cell-based. The following applies: dose 10-1000 nM.

One may read the IC50 as the concentration needed to halve the response being measured. The GI50 is the concentration giving 50% growth inhibition. High values mean lower sensitivity of the cells, low ones greater sensitivity of the cells.

SMILES strings stand for the structures. Calls of active or inactive are those of the source. No cut-off for these calls is given here. Where only a bound is given, the exact number is not on record here.

Sequence of Phosphatidylinositol 4,5-bisphosphate 3-kinase catalytic subunit gamma isoform (P48736 whole entry, canonical isoform): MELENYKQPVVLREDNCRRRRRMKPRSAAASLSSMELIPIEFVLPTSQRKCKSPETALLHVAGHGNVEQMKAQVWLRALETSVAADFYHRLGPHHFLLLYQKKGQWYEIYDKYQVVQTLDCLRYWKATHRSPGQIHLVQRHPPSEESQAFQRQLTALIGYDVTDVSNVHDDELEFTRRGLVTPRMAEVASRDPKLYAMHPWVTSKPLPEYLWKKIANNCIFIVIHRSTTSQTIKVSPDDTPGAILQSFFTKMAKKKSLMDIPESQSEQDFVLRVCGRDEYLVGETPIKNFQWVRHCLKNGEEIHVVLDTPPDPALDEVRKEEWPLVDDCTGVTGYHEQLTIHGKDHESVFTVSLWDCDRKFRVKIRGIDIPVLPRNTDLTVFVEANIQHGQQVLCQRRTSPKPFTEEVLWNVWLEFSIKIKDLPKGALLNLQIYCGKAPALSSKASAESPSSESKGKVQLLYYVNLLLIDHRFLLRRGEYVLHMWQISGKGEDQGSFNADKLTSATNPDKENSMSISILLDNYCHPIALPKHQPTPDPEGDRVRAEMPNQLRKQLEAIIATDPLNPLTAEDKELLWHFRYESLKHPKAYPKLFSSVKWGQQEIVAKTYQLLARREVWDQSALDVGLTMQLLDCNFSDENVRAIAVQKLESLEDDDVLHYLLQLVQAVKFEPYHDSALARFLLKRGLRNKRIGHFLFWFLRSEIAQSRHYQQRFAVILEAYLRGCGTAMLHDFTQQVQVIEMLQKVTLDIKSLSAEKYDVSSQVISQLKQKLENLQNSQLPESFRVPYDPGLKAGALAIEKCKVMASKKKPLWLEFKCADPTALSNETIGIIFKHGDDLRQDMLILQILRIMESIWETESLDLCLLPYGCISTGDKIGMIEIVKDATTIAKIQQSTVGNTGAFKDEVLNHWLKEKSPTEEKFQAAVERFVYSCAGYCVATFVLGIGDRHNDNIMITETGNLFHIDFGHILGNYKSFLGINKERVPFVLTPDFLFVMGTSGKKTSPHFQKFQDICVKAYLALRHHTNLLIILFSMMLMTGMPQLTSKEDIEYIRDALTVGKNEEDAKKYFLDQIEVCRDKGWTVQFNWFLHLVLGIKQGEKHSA
Sequence of Phosphatidylinositol 4,5-bisphosphate 3-kinase catalytic subunit beta isoform (P42338 whole entry, canonical isoform): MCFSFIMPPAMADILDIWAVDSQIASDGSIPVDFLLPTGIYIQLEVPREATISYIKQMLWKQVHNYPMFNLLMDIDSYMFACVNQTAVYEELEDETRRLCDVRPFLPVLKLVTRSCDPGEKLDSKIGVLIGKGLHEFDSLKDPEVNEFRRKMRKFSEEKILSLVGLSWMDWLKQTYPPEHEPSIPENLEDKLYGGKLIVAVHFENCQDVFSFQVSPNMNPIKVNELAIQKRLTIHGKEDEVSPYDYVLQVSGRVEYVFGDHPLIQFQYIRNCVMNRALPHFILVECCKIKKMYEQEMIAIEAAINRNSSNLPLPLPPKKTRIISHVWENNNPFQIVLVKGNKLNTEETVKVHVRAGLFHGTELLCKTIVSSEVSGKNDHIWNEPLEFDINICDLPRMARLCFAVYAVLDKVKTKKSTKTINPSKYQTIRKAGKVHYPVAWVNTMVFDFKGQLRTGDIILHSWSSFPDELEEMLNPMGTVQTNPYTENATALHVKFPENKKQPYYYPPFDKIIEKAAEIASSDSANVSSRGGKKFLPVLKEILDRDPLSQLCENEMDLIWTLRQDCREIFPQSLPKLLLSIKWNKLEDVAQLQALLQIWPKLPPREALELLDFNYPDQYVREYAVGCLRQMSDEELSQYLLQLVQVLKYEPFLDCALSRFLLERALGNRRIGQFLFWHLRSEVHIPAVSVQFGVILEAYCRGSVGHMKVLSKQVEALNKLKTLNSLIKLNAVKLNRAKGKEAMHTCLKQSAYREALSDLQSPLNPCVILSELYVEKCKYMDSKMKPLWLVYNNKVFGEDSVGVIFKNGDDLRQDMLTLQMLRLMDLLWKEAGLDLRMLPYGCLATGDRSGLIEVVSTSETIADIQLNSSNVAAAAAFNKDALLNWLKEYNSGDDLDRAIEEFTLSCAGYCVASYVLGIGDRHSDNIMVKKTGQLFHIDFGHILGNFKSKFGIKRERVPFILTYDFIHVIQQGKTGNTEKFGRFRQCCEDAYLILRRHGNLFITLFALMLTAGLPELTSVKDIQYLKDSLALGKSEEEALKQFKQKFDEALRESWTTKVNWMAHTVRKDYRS

For `COc1ncc(-c2ccc3ncnc(N[C@H]4CCN(C(=O)C5CCOCC5)C4)c3n2)cc1C(=O)Oc1ccccc1`, the results for the Activity in series [1] and in series [4] were 17.68% and 4.19%, respectively. In addition, the Ratio IC50 in [2] was 10; in series [6] it was above 1000; in series [12], 753; in series [15], 359. For the same compound, the viability at 1 µM in series [3] turned out to be 14.2%. Further, the 50% inhibitory concentration (IC50) in series [5] is 0.094 µM; in [14], 0.203 µM; in [17] it was 0.00027 µM. The concentration for 50% growth inhibition (GI50) in [7] is 0.002 µM; in series [13], above 10 µM; in [18], 0.102 µM; in series [19], 1.35 µM. Moreover, the RatioGI50 in series [8] is reported as around 10. Further, in series [9], the inhibition result is “Active”. In addition, the outcome in series [10] was Active. Moreover, the Ratio in series [11] is 1.76 10^5/M/s. Moreover, the inhibition in vivo at 5 mg/kg/day in [16] was determined as 44%. Also, the Stability entry in series [20] was “Stable”. Also, the viability at 0.1 µM in [21] is 65.3%. For the same compound, in series [22], the inhibition entry was “Dose-Dependent Effect”.
